Measured values published in paper PMC7163368 (British Journal of Clinical Pharmacology, 2020).
Entries after “also recorded” stand apart in the source; their conditions may differ.

Test: Safety and tolerability: adverse events, laboratory, ECG, physical examination
Format: in vivo, human
[1] = s.c. single dose 120 mg (n = 5)

## O=C(CN[C@@H]1CCNC1)N1CCC[C@H]1B(O)O [dutogliptin]
30 mg i.v.
  AEs with intravenous bolus injection: not associated with any AEs
P > .999
  Dose dependence of related systemic AEs: No dose‐dependent increase
  Dose dependence of subjects experiencing at least 1 local AE: no dose‐dependent increase
Total (n = 40)
  Erythema, related: subjects with at least 1 AE: 34 (85%)
  Fatigue, related: subjects with at least 1 AE: 2 (5%)
  Headache, related: subjects with at least 1 AE: 2 (5%)
  Hematoma, related: subjects with at least 1 AE: 4 (10%)
  Local AEs, related: subjects with at least 1 AE: 34 (85%)
  Other local AEs, related: subjects with at least 1 AE: 1 (3%)
  Other systemic AEs, related: subjects with at least 1 AE: 2 (5%)
  Pain with touching, related: subjects with at least 1 AE: 8 (20%)
  Pain without touching, related: subjects with at least 1 AE: 3 (8%)
  Swelling, related: subjects with at least 1 AE: 2 (5%)
  Systemic AEs, related: subjects with at least 1 AE: 6 (15%)
All cohorts
  Nonrelated serious AE (head injury, hospitalization): 1
  Nonrelated severe AEs: Two nonrelated severe AEs
  Related systemic AEs, total: 6
All cohorts, 40 healthy males
  Related serious (or severe) adverse events: No related serious adverse events occurred; also recorded: No study drug‐related severe or serious AEs were observed
i.v. single dose 30 mg (n = 5)
  All AEs, related: subjects with at least 1 AE: 0
  Erythema, related: subjects with at least 1 AE: 0
  Fatigue, related: subjects with at least 1 AE: 0
  Headache, related: subjects with at least 1 AE: 0
  Hematoma, related: subjects with at least 1 AE: 0
  Induration, related: subjects with at least 1 AE: 0
  Local AEs, related: subjects with at least 1 AE: 0
  Other local AEs (burning sensation at the injection site), related: subjects with at least 1 AE: 0
  Other systemic AEs (dizziness and nausea), related: subjects with at least 1 AE: 0
  Pain with touching, related: subjects with at least 1 AE: 0
  Pain without touching, related: subjects with at least 1 AE: 0
  Swelling, related: subjects with at least 1 AE: 0
  Systemic AEs, related: subjects with at least 1 AE: 0
s.c. multidose 60 mg (n = 5)
  All AEs, related: subjects with at least 1 AE: 5 (100%)
  Erythema, related: subjects with at least 1 AE: 5 (100%)
  Fatigue, related: subjects with at least 1 AE: 1 (20%)
  Headache, related: subjects with at least 1 AE: 0
  Hematoma, related: subjects with at least 1 AE: 1 (20%)
  Induration, related: subjects with at least 1 AE: 4 (80%)
  Local AEs, related: subjects with at least 1 AE: 5 (100%)
  Other local AEs, related: subjects with at least 1 AE: 0
  Other systemic AEs, related: subjects with at least 1 AE: 0
  Pain with touching, related: subjects with at least 1 AE: 3 (60%)
  Pain without touching, related: subjects with at least 1 AE: 0
  Swelling, related: subjects with at least 1 AE: 0
  Systemic AEs, related: subjects with at least 1 AE: 1 (20%)
s.c. multidose 90 mg (n = 5)
  All AEs, related: subjects with at least 1 AE: 5 (100%)
  Erythema, related: subjects with at least 1 AE: 5 (100%)
  Fatigue, related: subjects with at least 1 AE: 1 (20%)
  Headache, related: subjects with at least 1 AE: 1 (20%)
  Hematoma, related: subjects with at least 1 AE: 1 (20%)
  Induration, related: subjects with at least 1 AE: 4 (80%)
  Local AEs, related: subjects with at least 1 AE: 5 (100%)
  Other local AEs, related: subjects with at least 1 AE: 0
  Other systemic AEs (dizziness and nausea), related: subjects with at least 1 AE: 2 (40%)
  Pain with touching, related: subjects with at least 1 AE: 2 (40%)
  Pain without touching, related: subjects with at least 1 AE: 1 (20%)
  Swelling, related: subjects with at least 1 AE: 1 (20%)
  Systemic AEs, related: subjects with at least 1 AE: 4 (80%)
s.c. multidose 120 mg (n = 5)
  All AEs, related: subjects with at least 1 AE: 5 (100%)
  Erythema, related: subjects with at least 1 AE: 5 (100%)
  Fatigue, related: subjects with at least 1 AE: 0
  Headache, related: subjects with at least 1 AE: 0
  Hematoma, related: subjects with at least 1 AE: 0
  Induration, related: subjects with at least 1 AE: 3 (60%)
  Local AEs, related: subjects with at least 1 AE: 5 (100%)
  Other local AEs, related: subjects with at least 1 AE: 0
  Other systemic AEs, related: subjects with at least 1 AE: 0
  Pain with touching, related: subjects with at least 1 AE: 2 (40%)
  Pain without touching, related: subjects with at least 1 AE: 2 (40%)
  Swelling, related: subjects with at least 1 AE: 0
  Systemic AEs, related: subjects with at least 1 AE: 0
s.c. single dose 30 mg (n = 5)
  All AEs, related: subjects with at least 1 AE: 5 (100%)
  Erythema, related: subjects with at least 1 AE: 5 (100%)
  Fatigue, related: subjects with at least 1 AE: 0
  Headache, related: subjects with at least 1 AE: 0
  Hematoma, related: subjects with at least 1 AE: 0
  Induration, related: subjects with at least 1 AE: 0
  Local AEs, related: subjects with at least 1 AE: 5 (100%)
  Other local AEs, related: subjects with at least 1 AE: 0
  Other systemic AEs, related: subjects with at least 1 AE: 0
  Pain with touching, related: subjects with at least 1 AE: 1 (20%)
  Pain without touching, related: subjects with at least 1 AE: 0
  Swelling, related: subjects with at least 1 AE: 0
  Systemic AEs, related: subjects with at least 1 AE: 0
s.c. single dose 60 mg (n = 5)
  All AEs, related: subjects with at least 1 AE: 5 (100%)
  Erythema, related: subjects with at least 1 AE: 5 (100%)
  Fatigue, related: subjects with at least 1 AE: 0
  Headache, related: subjects with at least 1 AE: 0
  Hematoma, related: subjects with at least 1 AE: 0
  Induration, related: subjects with at least 1 AE: 1 (20%)
  Local AEs, related: subjects with at least 1 AE: 5 (100%)
  Other local AEs, related: subjects with at least 1 AE: 0
  Other systemic AEs, related: subjects with at least 1 AE: 0
  Pain with touching, related: subjects with at least 1 AE: 0
  Pain without touching, related: subjects with at least 1 AE: 0
  Swelling, related: subjects with at least 1 AE: 0
  Systemic AEs, related: subjects with at least 1 AE: 0
s.c. single dose 90 mg (n = 5)
  All AEs, related: subjects with at least 1 AE: 5 (100%)
  Erythema, related: subjects with at least 1 AE: 5 (100%)
  Fatigue, related: subjects with at least 1 AE: 0
  Headache, related: subjects with at least 1 AE: 0
  Hematoma, related: subjects with at least 1 AE: 1 (20%)
  Induration, related: subjects with at least 1 AE: 0
  Local AEs, related: subjects with at least 1 AE: 5 (100%)
  Other local AEs, related: subjects with at least 1 AE: 0
  Other systemic AEs, related: subjects with at least 1 AE: 0
  Pain with touching, related: subjects with at least 1 AE: 0
  Pain without touching, related: subjects with at least 1 AE: 0
  Swelling, related: subjects with at least 1 AE: 1 (20%)
  Systemic AEs, related: subjects with at least 1 AE: 0
[1]
  All AEs, related: subjects with at least 1 AE: 5 (100%)
  Erythema, related: subjects with at least 1 AE: 4 (80%)
  Fatigue, related: subjects with at least 1 AE: 0
  Headache, related: subjects with at least 1 AE: 1 (20%)
  Hematoma, related: subjects with at least 1 AE: 1 (20%)
  Induration, related: subjects with at least 1 AE: 2 (40%)
  Local AEs, related: subjects with at least 1 AE: 4 (80%)
  Other local AEs (burning sensation at the injection site), related: subjects with at least 1 AE: 1 (20%)
  Other systemic AEs, related: subjects with at least 1 AE: 0
  Pain with touching, related: subjects with at least 1 AE: 0
  Pain without touching, related: subjects with at least 1 AE: 0
  Swelling, related: subjects with at least 1 AE: 0
  Systemic AEs, related: subjects with at least 1 AE: 1 (20%)
